Source: patent publication US12655116B2, “Substituted isophthalic acid diamides” (Bayer Aktiengesellschaft, priority 2020, dated 2026)

Key:
VIOTR [1] = experiment: Post-emergence herbicidal action against VIOTR; format: in vivo, Viola tricolor; conditions: 20 g/ha
Outline: (§1)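 Visual % rating (0% = as untreated, 100% = dead) ~3 wk after spraying one-leaf-stage plants grown in sandy loam; WP/EC in water at 600–800 l/ha, 0.2% wetting agent.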

ECHCG [2] = experiment: Pre-emergence herbicidal action against ECHCG; format: in vivo, Echinochloa crus-galli; conditions: 80 g/ha
Outline: (§2)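 Sandy loam pots, seeds covered with soil, then surface-treated with WP or EC formulations at 600–800 l/ha water plus 0.2% wetting agent. Greenhouse, 3 weeks. Percent damage vs untreated controls.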

PHBPU [3] = experiment: Post-emergence herbicidal action against PHBPU; format: in vivo, Pharbitis purpurea
Outline: as §1

AMARE [4] = experiment: Post-emergence herbicidal action against AMARE; format: in vivo, Amaranthus retroflexus; conditions: 20 g/ha, visual assessment about 3 weeks after treatment, 100% = plants have died, 0% = like control plants
Outline: as §1

PHBPU [5] = experiment: Pre-emergence herbicidal action against PHBPU; format: in vivo, Pharbitis purpurea; conditions: dosage 80 g/ha
Outline: as §2

VIOTR [6] = experiment: Pre-emergence herbicidal action against VIOTR; format: in vivo, Viola tricolor
Outline: as §2

VERPE [7] = experiment: Pre-emergence herbicidal action against VERPE; format: in vivo, Veronica persica
Outline: as §2

ABUTH [8] = experiment: Post-emergence herbicidal action against ABUTH; format: in vivo, Abutilon theophrasti; conditions: visual assessment about 3 weeks after treatment vs untreated controls
Outline: as §1

VERPE [9] = experiment: Post-emergence herbicidal action against VERPE; format: in vivo, Veronica persica
Outline: as §1

MATIN [10] = experiment: Pre-emergence herbicidal action against MATIN; format: in vivo, Matricaria inodora
Outline: as §2

DIGSA [11] = experiment: Pre-emergence herbicidal action against DIGSA; format: in vivo, Digitaria sanguinalis
Outline: as §2

AMARE [12] = experiment: Pre-emergence herbicidal action against AMARE; format: in vivo, Amaranthus retroflexus
Outline: as §2

DIGSA [13] = experiment: Post-emergence herbicidal action against DIGSA; format: in vivo, Digitaria sanguinalis; conditions: for Post-emergence action against DIGSA in %: 5 g/ha; for Post-emergence action against DIGSA: 20 g/ha
Outline: as §1

SETVI [14] = experiment: Pre-emergence herbicidal action against SETVI; format: in vivo, Setaria viridis
Outline: as §2

ABUTH [15] = experiment: Pre-emergence herbicidal action against ABUTH; format: in vivo, Abutilon theophrasti; conditions: for Pre-emergence action against ABUTH (herbicidal activity): 80 g/ha, scored visually after 3 weeks vs untreated controls (100% = plants have died, 0% = like control plants); for Pre-emergence action against ABUTH (herbicidal activity in percent): dosage 20 g/ha, scored visually after 3 weeks vs untreated controls, 100% = plants have died, 0% = like control plants
Outline: as §2

SETVI [16] = experiment: Post-emergence herbicidal action against SETVI; format: in vivo, Setaria viridis; conditions: dosage 20 g/ha
Outline: as §1

MATIN [17] = experiment: Post-emergence herbicidal action against MATIN; format: in vivo, Matricaria inodora
Outline: as §1

ECHCG [18] = experiment: Post-emergence herbicidal action against ECHCG; format: in vivo, Echinochloa crus-galli; conditions: dosage 20 g/ha
Outline: as §1

ALOMY = experiment: Pre-emergence herbicidal action against ALOMY; format: in vivo, Alopecurus myosuroides; conditions: 80 g/ha, pre-emergence, scored visually after 3 weeks vs untreated controls (100% = plants have died, 0% = like control plants)
Outline: as §2

[19] = 20 g/ha, scored visually after 3 weeks vs untreated controls, 100% = plants have died, 0% = like control plants
[20] = 80 g/ha, scored visually after 3 weeks vs untreated controls (100% = plants have died, 0% = like control plants)

Row | SMILES | Post-emergence action against VIOTR in % (VIOTR [1]) [%] | Pre-emergence action against ECHCG in % (ECHCG [2]) [%] | Post-emergence action against PHBPU in % (PHBPU [3]; dosage 20 g/ha) [%] | Post-emergence action at 20 g/ha against AMARE in % (AMARE [4]) [%] | Pre-emergence action against PHBPU in % (PHBPU [5]) [%] | Pre-emergence action against VIOTR in % (VIOTR [6]; dosage 20 g/ha) [%] | Pre-emergence action against VIOTR in % (VIOTR [6]; dosage 80 g/ha) [%] | Pre-emergence action against VERPE in % (VERPE [7]; dosage 80 g/ha) [%] | Post-emergence action against VERPE in % (VERPE [9]; 20 g/ha) [%] | Pre-emergence action against MATIN in % (MATIN [10]; dosage 20 g/ha) [%] | Pre-emergence action against MATIN in % (MATIN [10]; dosage 80 g/ha) [%] | Pre-emergence action against DIGSA in % (DIGSA [11]; dosage 20 g/ha) [%] | Pre-emergence action against DIGSA in % (DIGSA [11]; dosage 80 g/ha) [%] | Pre-emergence action against AMARE in % (AMARE [12]; [19]) [%] | Pre-emergence action against AMARE in % (AMARE [12]; [20]) [%] | Post-emergence action against DIGSA in % (DIGSA [13]) [%] | Post-emergence action against DIGSA (DIGSA [13]) [%] | Pre-emergence action against SETVI in % (SETVI [14]; dosage 80 g/ha) [%] | Pre-emergence action against ABUTH (herbicidal activity) (ABUTH [15]) [%] | Pre-emergence action against ABUTH (herbicidal activity in percent) (ABUTH [15]) [%] | other results
1 | CCn1nnnc1NC(=O)c1ccc(C(F)(F)F)c(C(=O)NC)c1C1CC1 [Example 2-286] | 80 | 90 | 90 | 100 | 90 | 90 | 100 | 100 | 80 | 100 | 100 | 100 | 100 | 100 | 100 | 90 | 90 | 100 | 100 | 100 | Post-emergence action against PHBPU in % (PHBPU [3]; dosage 5 g/ha): 90%; Pre-emergence action against VERPE in % (VERPE [7]; dosage 20 g/ha): 80%; Post-emergence action against ABUTH in % (ABUTH [8]; dosage 5 g/ha): 90%; Post-emergence action against ABUTH in % (ABUTH [8]; dosage 20 g/ha): 90%; Post-emergence action against VERPE in % (VERPE [9]; 5 g/ha): 80%; Pre-emergence action against SETVI in % (SETVI [14]; dosage 20 g/ha): 80%; Post-emergence action against SETVI in % (SETVI [16]): 80%; Post-emergence action against MATIN in % (MATIN [17]; dosage 5 g/ha): 90%; Post-emergence action against MATIN in % (MATIN [17]; dosage 20 g/ha): 90%; Post-emergence action against ECHCG in % (ECHCG [18]): 100%; Pre-emergence action against ALOMY (herbicidal activity) (ALOMY): 80%
2 | CCn1nnnc1NC(=O)c1ccc(C(F)F)c(C(=O)NC(C)C2CC2)c1Br (centres unmarked) [Example 2-340] | 80 | 100 | 80 | 100 | 80 | 100 | 100 | 100 | 90 | 100 | 100 | 100 | 100 | 100 | 100 | 80 | 90 | 100 | 100 | 100 | Post-emergence action against MATIN in % (MATIN [17]; dosage 20 g/ha): 80%; Post-emergence action against ECHCG in % (ECHCG [18]): 90%
